Patent publication US4409210A, “Antibiotic compound” (priority 1982, dated 1983)
In brackets after ≈: the same amount, converted by molar mass. *1 amine or outer side, *2 acyl side, *3 side chain or, on linkers, in order; H or OH if unused. Where a SMILES comes first, the peptide text is derived from it. Bridges are numbered along the chain shown (N, C = ends). Roman numbers before positions name the chains, in order. [ ]: non-standard residue; d: D form. Actinocin(9to1) = Cc1c2oc3c(C)ccc(C(=O)[*:1])c3nc-2c(C(=O)[*:2])c(N)c1=O; NMeV = CN[C@H](C(=O)O)C(C)C; Sar = CNCC(=O)O

Tests used:
Strain G393-B445 = assay: Antibiotic sensitivity, paper disc-agar diffusion method; format: cell-based, Empedobacter sp.; parameters: key: S (sensitive); R (resistant); I (intermediate); conditions: nutrient agar, 2 day's incubation at 28° C., Difco discs, amount/disc per antibiotic
E. coli NIHJ = assay: as above; format: cell-based; parameters: key: S (sensitive); R (resistant); I (intermediate); conditions: nutrient agar, 2 day's incubation at 28° C., Difco discs, amount/disc per antibiotic
S. aureus 209P = assay: as above; format: cell-based; parameters: key: S (sensitive); R (resistant); I (intermediate); conditions: nutrient agar, 2 day's incubation at 28° C., Difco discs, amount/disc per antibiotic
[1] = test system: Staphylococcus aureus #193; assay: MIC, serial two-fold dilution method (aerobic); format: cell-based; conditions: Staphylococcus aureus #193; Mueller-Hinton agar; inoculum 10^4; read-out: minimum inhibitory concentration (MIC)
[2] = test system: Staphylococcus aureus 209P; assay: MIC, serial two-fold dilution method (aerobic); format: cell-based; conditions: Staphylococcus aureus 209P; Mueller-Hinton agar; inoculum 10^4; read-out: minimum inhibitory concentration (MIC)
[3] = test system: Bacillus subtilis ATCC 6633; assay: MIC, serial two-fold dilution method (aerobic); format: cell-based; conditions: ATCC6633; Bacillus subtilis ATCC 6633; Mueller-Hinton agar; inoculum 10^4; read-out: minimum inhibitory concentration (MIC)
[4] = test system: Staphylococcus aureus A22421; assay: MIC, serial two-fold dilution method (aerobic); format: cell-based; conditions: Staphylococcus aureus A22421; Mueller-Hinton agar; inoculum 10^4; read-out: minimum inhibitory concentration (MIC)
[5] = test system: Staphylococcus aureus A9601; assay: MIC, serial two-fold dilution method (aerobic); format: cell-based; conditions: Staphylococcus aureus A9601; Mueller-Hinton agar; inoculum 10^4; read-out: minimum inhibitory concentration (MIC)
[6] = test system: Staphylococcus aureus A20394; assay: MIC, serial two-fold dilution method (aerobic); format: cell-based; conditions: Staphylococcus aureus A20394; Mueller-Hinton agar; inoculum 10^4; read-out: minimum inhibitory concentration (MIC)
Micrococcus flavus D-12 = assay: MIC, serial two-fold dilution method (aerobic); format: cell-based; conditions: D12; Micrococcus flavus D-12; Mueller-Hinton agar; inoculum 10^4; read-out: minimum inhibitory concentration (MIC)
[7] = test system: Bacillus anthracis IID-115; assay: microbe, parasite or virus in culture; format: cell-based; conditions: Bacillus anthracis, IID115, read-out: minimum inhibitory concentration (MIC)
[8] = test system: Staphylococcus aureus A9748; assay: MIC, serial two-fold dilution method (aerobic); format: cell-based; conditions: Staphylococcus aureus A9748; Mueller-Hinton agar; inoculum 10^4; read-out: minimum inhibitory concentration (MIC)
[9] = test system: Klebsiella pneumoniae D-11; assay: MIC, serial two-fold dilution method (aerobic); format: cell-based; conditions: D11; Klebsiella pneumoniae D-11; Mueller-Hinton agar; inoculum 10^4; read-out: minimum inhibitory concentration (MIC)
[10] = test system: Staphylococcus aureus BX-1633; assay: MIC, serial two-fold dilution method (aerobic); format: cell-based; conditions: BX1633; Staphylococcus aureus BX-1633; Mueller-Hinton agar; inoculum 10^4; read-out: minimum inhibitory concentration (MIC)
Escherichia coli NIHJ = assay: MIC, serial two-fold dilution method (aerobic); format: cell-based; conditions: Escherichia coli NIHJ; Mueller-Hinton agar; inoculum 10^4; read-out: minimum inhibitory concentration (MIC)
[11] = test system: Pseudomonas aeruginosa D-113; assay: MIC, serial two-fold dilution method (aerobic); format: cell-based; conditions: D113; Pseudomonas aeruginosa D-113; Mueller-Hinton agar; inoculum 10^4; read-out: minimum inhibitory concentration (MIC)
[12] = test system: Staphylococcus aureus Smith; assay: MIC, serial two-fold dilution method (aerobic); format: cell-based; conditions: Staphylococcus aureus Smith; Mueller-Hinton agar; inoculum 10^4; read-out: minimum inhibitory concentration (MIC)
Sarcina lutea PCI-1001 = assay: MIC, serial two-fold dilution method (aerobic); format: cell-based; conditions: Micrococcus luteus, PCI1001; Sarcina lutea PCI-1001; Mueller-Hinton agar; inoculum 10^4; read-out: minimum inhibitory concentration (MIC)
Proteus mirabilis A9554 = assay: MIC, serial two-fold dilution method (aerobic); format: cell-based; conditions: Proteus mirabilis A9554; Mueller-Hinton agar; inoculum 10^4; read-out: minimum inhibitory concentration (MIC)
Proteus vulgaris A9436 = assay: MIC, serial two-fold dilution method (aerobic); format: cell-based; conditions: Proteus vulgaris A9436; Mueller-Hinton agar; inoculum 10^4; read-out: minimum inhibitory concentration (MIC)
[13] = test system: Staphylococcus aureus A20610; assay: MIC, serial two-fold dilution method (aerobic); format: cell-based; conditions: Staphylococcus aureus A20610; Mueller-Hinton agar; inoculum 10^4; read-out: minimum inhibitory concentration (MIC)
[14] = test system: Staphylococcus aureus A20239; assay: MIC, serial two-fold dilution method (aerobic); format: cell-based; conditions: Staphylococcus aureus A20239; Mueller-Hinton agar; inoculum 10^4; read-out: minimum inhibitory concentration (MIC)
[15] = test system: Staphylococcus aureus A9856; assay: MIC, serial two-fold dilution method (aerobic); format: cell-based; conditions: Staphylococcus aureus A9856; Mueller-Hinton agar; inoculum 10^4; read-out: minimum inhibitory concentration (MIC)
[16] = test system: Staphylococcus aureus A20701; assay: MIC, serial two-fold dilution method (aerobic); format: cell-based; conditions: Staphylococcus aureus A20701; Mueller-Hinton agar; inoculum 10^4; read-out: minimum inhibitory concentration (MIC)

Compound: Cc1c2oc3c(C)ccc(C(=O)N[C@@H]4C(=O)N[C@H](C(C)C)C(=O)N5CCC[C@H]5C(=O)N(C)CC(=O)N(C)[C@@H](C(C)C)C(=O)O[C@@H]4C)c3nc-2c(C(=O)N[C@@H]2C(=O)N[C@H](C(C)C)C(=O)N3CCC[C@H]3C(=O)N(C)CC(=O)N(C)[C@@H](C(C)C)C(=O)O[C@@H]2C)c(N)c1=O [Actinomycin D] (I: T[dV]P[Sar][NMeV] / II: T[dV]P[Sar][NMeV]; ester I:1-I:C, II:1-II:C; linker I:N-II:N via Actinocin(9to1))
- Sensitivity Strain G393-B445 (Strain G393-B445): I
- Sensitivity E. coli NIHJ (E. coli NIHJ): R
- Sensitivity S. aureus 209P (S. aureus 209P): S

Compound: NC[C@H]1O[C@H](O[C@H]2[C@H](O)[C@@H](O[C@H]3O[C@H](CO)[C@@H](O)[C@H](N)[C@H]3O)[C@H](N)C[C@@H]2N)[C@H](O)[C@@H](O)[C@@H]1O [Kanamycin]
- MIC [1]: 0.8 µg/mL (≈ 1.65 µM)
- MIC [2]: 0.4 µg/mL (≈ 0.826 µM)
- MIC [3]: 0.2 µg/mL (≈ 0.413 µM)
- MIC [4]: > 100 µg/mL
- MIC [5]: 0.4 µg/mL (≈ 0.826 µM)
- MIC [6]: 0.8 µg/mL (≈ 1.65 µM)
- MIC (Micrococcus flavus D-12): 3.1 µg/mL (≈ 6.4 µM)
- MIC [7]: 0.4 µg/mL (≈ 0.826 µM)
- MIC [8]: 1.6 µg/mL (≈ 3.3 µM)
- MIC [9]: 0.2 µg/mL (≈ 0.413 µM)
- MIC [10]: 0.8 µg/mL (≈ 1.65 µM)
- MIC (Escherichia coli NIHJ): 0.8 µg/mL (≈ 1.65 µM)
- MIC [11]: > 100 µg/mL
- MIC [12]: 0.4 µg/mL (≈ 0.826 µM)
- MIC (Sarcina lutea PCI-1001): 3.1 µg/mL (≈ 6.4 µM)
- MIC (Proteus mirabilis A9554): 0.4 µg/mL (≈ 0.826 µM)
- MIC (Proteus vulgaris A9436): 0.4 µg/mL (≈ 0.826 µM)
- MIC [13]: 100 µg/mL (≈ 206 µM)
- MIC [14]: > 100 µg/mL
- MIC [15]: 0.8 µg/mL (≈ 1.65 µM)
- MIC [16]: 100 µg/mL (≈ 206 µM)

Compound: CC1(C)S[C@@H]2[C@H](NC(=O)Cc3ccccc3)C(=O)N2[C@H]1C(=O)O [Pencillin G]
- Sensitivity Strain G393-B445 (Strain G393-B445): S
- Sensitivity E. coli NIHJ (E. coli NIHJ): I
- Sensitivity S. aureus 209P (S. aureus 209P): S

Compound: [H]/N=C(/N)N[C@H]1[C@H](O)[C@@H](O)[C@H](O[C@@H]2O[C@@H](C)[C@](O)(C=O)[C@H]2O[C@@H]2O[C@@H](CO)[C@H](O)[C@@H](O)[C@@H]2NC)[C@@H](N/C(N)=N\[H])[C@@H]1O [Streptomycin]
- Sensitivity Strain G393-B445 (Strain G393-B445): S
- Sensitivity E. coli NIHJ (E. coli NIHJ): I
- Sensitivity S. aureus 209P (S. aureus 209P): I

Compound: CN(C)[C@@H]1C(O)=C(C(N)=O)C(=O)[C@@]2(O)C(O)=C3C(=O)c4c(O)cccc4[C@@](C)(O)[C@H]3C[C@@H]12 [Tetracycline]
- Sensitivity Strain G393-B445 (Strain G393-B445): S
- Sensitivity E. coli NIHJ (E. coli NIHJ): S
- Sensitivity S. aureus 209P (S. aureus 209P): S

Compound: Polymyxin B
- Sensitivity Strain G393-B445 (Strain G393-B445): R
- Sensitivity E. coli NIHJ (E. coli NIHJ): R
- Sensitivity S. aureus 209P (S. aureus 209P): R
